From US12320799B2, “Methods of measuring signaling pathway activity for selection of therapeutic agents” (Celcuity Inc., priority 2017, dated 2025)

Columns and labels:
Type in all cases: cell-based, human
Axl signaling pathway = assay: CELx multiple pathway test, impedance biosensor cell adhesion, Gas6/R428 (BGB324) pair; conditions: activator Gas6
Excerpt: (§1) Biosensor and transducer: A 96-well impendence E-Plate (ACEA, San Diego, CA) was placed onto an xCELLigence RTCA MP Station impendence biosensor (ACEA, San Diego, CA). The biosensor measured simultaneously the impedance of every well. The change in impedance for a particular well is proportional to the number of cells and type of attachment the cells have with the impedance microplate. Changes in impedance indicate a response to perturbation of these small cell populations. Coatings: The 96-E-Plate were wells were coated with fibronectin and or collagen. Collagen is purchased from Advanced BioMatrix (Carlsbad, CA) and fibronectin from Sigma-Aldrich (St. Louis, MO). Tissue and cell samples: A total of 18 samples of human tumor cells from breast, lung, colon, ovarian, kidney, bladder cancer were studied. For each of these six different cancer types, tumor cell samples from three different patients were tested. Any biomarkers that are used to guide selection of targeted therapy are listed in Table 18 for each patient if they were present. Signaling Pathways activator agent and targeted therapeutic pairs: Eleven different signaling pathways were studied in each human tumor cell sample using […] signaling pathway activator agent and targeted therapeutic pairs. Each of the signaling pathway activator agent and targeted therapeutic pairs affect the same signaling pathway. Each of the signaling pathway activator agents is a well-characterized and specific agonist of its associated signaling pathway and each of the targeted therapeutic agents is a well-characterized and specific antagonist of the same associated signaling pathway. The signaling pathway activator agents and targeted therapeutics used to characterize the activity level of the associated signaling pathway are summarized in Table 16 below:
(§2) Other Reagents: Standard media antibiotics (e.g. penicillin, streptomycin) and other buffers were purchased and used as delivered from ATCC (Manassas, VA, USA) or Life Technologies (Grand Island, NY). Procedure: For each test of a patient cell sample with a pair of signaling pathway activator and targeted therapeutic agents, six wells were seeded with approximately 15,000 cells in 120 uL culture media. Twenty microliters of the targeted therapeutic agent were added to two wells of each patient's cells and 20 microliters of standard media were added to the other four wells for each patient 18 hours in advance of addition of the signaling pathway activator agent. Signaling pathway stimulation was initiated with the addition of 20 ul of the signaling pathway activator agent in the two wells that received a targeted therapeutic agent and in two additional wells for each patient's set of cells without the targeted therapeutic. The impedance recording of attachment and adhesion change was performed at 37° C., 5% C02. Data was recorded on a continuous basis throughout the test, where the data presented is from the initial baseline level of cell attachment compared to the subsequent effects following the targeted therapeutic agent and the signaling pathway activator agent additions on the 18 different patient samples.
(§3) For each of the 18 patient samples, up to 11 different signaling pathways were tested. The output value represents the difference between the amount of cell adhesion change resulting from addition of the signaling pathway activator agent and the amount of cell adhesion change resulting from addition of the targeted therapeutic agent.

[1] = tested on: HER2/HER1 signaling pathway; assay: CELx multiple pathway test, impedance biosensor cell adhesion, EGF/Pertuzumab pair; conditions: activator EGF
Excerpt: as §1
as §2, with “samples. Results:” for “samples.”
as §3, with “Table 17 presents the results, expressed as an output value, for each of the 167 tests performed using the methods described above. For” for “For”

[2] = tested on: HER2/HER3 signaling pathway; assay: CELx multiple pathway test, impedance biosensor cell adhesion, NRG1/Pertuzumab pair; conditions: activator NRG1
Excerpt: as §1, §2, §3

HER2 signaling pathway = assay: CELx multiple pathway test, impedance biosensor cell adhesion, Pertuzumab; conditions: no activator listed
Excerpt: as §1
as §2, with “samples. Results:” for “samples.”
as §3, with “Table 17 presents the results, expressed as an output value, for each of the 167 tests performed using the methods described above. For” for “For”

ALK signaling pathway = assay: CELx multiple pathway test, impedance biosensor cell adhesion, FAM150A/Ceritinib pair; conditions: activator FAM150A
Excerpt: as §1, §2, §3

[3] = tested on: HER1, HER3 and c-Met pathways; assay: CELx test of multiple pathways simultaneously (EGF, NRG1, HGF in combination), impedance biosensor
Excerpt: Biosensor and transducer: A 96-well impendence E-Plate (ACEA, San Diego, CA) was placed onto an xCELLigence RTCA MP Station impendence biosensor (ACEA, San Diego, CA). The biosensor measured simultaneously the impedance of every well. The change in impedance for a particular well is proportional to the number of cells and type of attachment the cells have with the impedance microplate. Changes in impedance indicate a response to perturbation of these small cell populations. Coatings: The 96-E-Plate were wells were coated with fibronectin and or collagen. Collagen is purchased from Advanced BioMatrix (Carlsbad, CA) and fibronectin from Sigma-Aldrich (St. Louis, MO). Tissue and cell samples: Six samples of human tumor cells from breast cancer were studied (C1815, C1596, C1838, C135, C42, C264). Any biomarkers that are used to guide selection of targeted therapy are listed in Table 22 for each patient if they were present. Signaling Pathways activator agent and targeted therapeutic pairs: In each human tumor cell sample, gross signaling activity of the HER1, HER3 and c-Met pathways initiated by three activator agents (EGF, NRG1, HGF) in combination was quantified. […] Each of the signaling pathway activator agents is a well-characterized and specific agonist of its associated signaling pathway. […] The fifth targeted therapeutic tested, taselisib, is an inhibitor that binds to PI3k, which downstream of the HER family and c-Met receptors. Other Reagents: Standard media, antibiotics (e.g. penicillin, streptomycin), and other buffers were purchased and used as delivered from ATCC (Manassas, VA, USA) or Life Technologies (Grand Island, NY). Procedure:
For each test of a patient cell sample with a signaling pathway activator(s) and targeted therapeutic agent(s), six or eight wells were seeded with approximately 15,000 cells in 120 uL culture media; six wells were seeded when only a single drug was evaluated and eight wells were seeded when two drugs were evaluated. When only a single drug was evaluated, 20 uL of the targeted therapeutic agent was added to two wells of each patient's cells and the final concentration of the therapeutic agent in the two wells with the single therapeutic agent was 500 nanomolar. When two therapeutic agents were evaluated, two wells of patient cells received 20 uL of the combined therapeutic agents at a concentration of 500 nanomolar each and an additional two wells of patient cells received 20 uL of the combined therapeutic agents at a concentration of 50 nanomolar each. Twenty microliters of standard media were added to the other four wells for each patient 18 hours in advance of addition of the signaling pathway activator agent(s). Signaling pathway stimulation was initiated with the addition of 20 ul of the signaling pathway activator agent(s) in the two or four wells that received a targeted therapeutic agent(s) and two additional wells for each patient's set of cells. The impedance recording of attachment and adhesion change was performed at 37° C., 5% CO2. Data was recorded on a continuous basis throughout the test, where the data presented if from the initial baseline level of cell attachment compared to the subsequent effects following the targeted therapeutic agent(s) and the signaling pathway activator agent(s) additions on the nine different patient samples.
as §3, with “six” for “18”, “three” for “up to 11”, “pathways (HER1, HER3, c-Met)” for “pathways”, “activated simultaneously.” for “tested.”, “agent(s)” for “agent”, “agent(s).” for “agent.”

Nc1nc(Nc2ccc3c(c2)CC[C@@H](N2CCCC2)CC3)nn1-c1cc2c(nn1)-c1ccccc1CCC2 [R428 (BGB324)]
output value (Axl signaling pathway; C2 breast tumor cells): 5
output value (Axl signaling pathway; C21 breast tumor cells): 6
output value (Axl signaling pathway; C23 lung tumor cells): 24
output value (Axl signaling pathway; C24 lung tumor cells): 7
output value (Axl signaling pathway; C25 lung tumor cells): 30
output value (Axl signaling pathway; C34 breast tumor cells): 44
output value (Axl signaling pathway; C54 ovarian tumor cells): 12
output value (Axl signaling pathway; C69 ovarian tumor cells): 10
output value (Axl signaling pathway; C77 ovarian tumor cells): 5

Pertuzumab
output value ([1]; C2 breast tumor cells): 28
output value ([1]; C21 breast tumor cells): 40
output value ([1]; C23 lung tumor cells): −6
output value ([1]; C24 lung tumor cells): 54
output value ([1]; C25 lung tumor cells): 38
output value ([1]; C34 breast tumor cells): −176
output value ([1]; C54 ovarian tumor cells): 180
output value ([1]; C62 colorectal tumor cells): 0
output value ([1]; C69 ovarian tumor cells): −115
output value ([1]; C71 colorectal tumor cells): −10
output value ([1]; C72 colorectal tumor cells): 0
output value ([1]; C77 ovarian tumor cells): 67
output value ([1]; C81 bladder tumor cells): 1
output value ([1]; C82 bladder tumor cells): 1
output value ([1]; C87 bladder tumor cells): 46
output value ([1]; C88 kidney tumor cells): −24
output value ([1]; C90 kidney tumor cells): 35
output value ([1]; C92 kidney tumor cells): 3
output value ([2]; C2 breast tumor cells): 426
output value ([2]; C21 breast tumor cells): −48
output value ([2]; C23 lung tumor cells): 61
output value ([2]; C24 lung tumor cells): 13
output value ([2]; C25 lung tumor cells): 9
output value ([2]; C54 ovarian tumor cells): 356
output value ([2]; C62 colorectal tumor cells): 24
output value ([2]; C71 colorectal tumor cells): 175
output value ([2]; C72 colorectal tumor cells): 21
output value ([2]; C77 ovarian tumor cells): 294
output value ([2]; C81 bladder tumor cells): 4
output value ([2]; C82 bladder tumor cells): 5
output value ([2]; C87 bladder tumor cells): 477
output value ([2]; C88 kidney tumor cells): 46
output value ([2]; C90 kidney tumor cells): −3
output value ([2]; C92 kidney tumor cells): −20
output value (HER2 signaling pathway; C2 breast tumor cells): 454
output value (HER2 signaling pathway; C21 breast tumor cells): −9
output value (HER2 signaling pathway; C23 lung tumor cells): −55
output value (HER2 signaling pathway; C24 lung tumor cells): 66
output value (HER2 signaling pathway; C25 lung tumor cells): 47
output value (HER2 signaling pathway; C34 breast tumor cells): −90
output value (HER2 signaling pathway; C54 ovarian tumor cells): 537
output value (HER2 signaling pathway; C62 colorectal tumor cells): 24
output value (HER2 signaling pathway; C69 ovarian tumor cells): −20
output value (HER2 signaling pathway; C71 colorectal tumor cells): 165
output value (HER2 signaling pathway; C72 colorectal tumor cells): 21
output value (HER2 signaling pathway; C77 ovarian tumor cells): 361
output value (HER2 signaling pathway; C81 bladder tumor cells): 5
output value (HER2 signaling pathway; C82 bladder tumor cells): 6
output value (HER2 signaling pathway; C87 bladder tumor cells): 523
output value (HER2 signaling pathway; C88 kidney tumor cells): 16
output value (HER2 signaling pathway; C90 kidney tumor cells): 32
output value (HER2 signaling pathway; C92 kidney tumor cells): 23

Cc1cc(Nc2ncc(Cl)c(Nc3ccccc3S(=O)(=O)C(C)C)n2)c(OC(C)C)cc1C1CCNCC1 [Ceritinib]
output value (ALK signaling pathway; C2 breast tumor cells): 5
output value (ALK signaling pathway; C21 breast tumor cells): 10
output value (ALK signaling pathway; C23 lung tumor cells): 16
output value (ALK signaling pathway; C24 lung tumor cells): 2
output value (ALK signaling pathway; C25 lung tumor cells): 8
output value (ALK signaling pathway; C34 breast tumor cells): 15
output value (ALK signaling pathway; C54 ovarian tumor cells): 14
output value (ALK signaling pathway; C69 ovarian tumor cells): 16
output value (ALK signaling pathway; C77 ovarian tumor cells): 37

Cc1nc(-c2cn3c(n2)-c2ccc(-c4cnn(C(C)(C)C(N)=O)c4)cc2OCC3)n(C(C)C)n1 [taselisib]
Output value (cell adhesion change, activator agents minus targeted therapeutic agent(s)) ([3]; breast cancer patient sample C42, agent(s) 500 nM each): 246
Output value (cell adhesion change, activator agents minus targeted therapeutic agent(s)) ([3]; breast cancer patient sample C135, agent(s) 500 nM each): 583
Output value (cell adhesion change, activator agents minus targeted therapeutic agent(s)) ([3]; breast cancer patient sample C264, agent(s) 500 nM each): 276
Output value (cell adhesion change, activator agents minus targeted therapeutic agent(s)) ([3]; breast cancer patient sample C1596, agent(s) 500 nM each): 242
Output value (cell adhesion change, activator agents minus targeted therapeutic agent(s)) ([3]; breast cancer patient sample C1815, agent(s) 500 nM each): 385
Output value (cell adhesion change, activator agents minus targeted therapeutic agent(s)) ([3]; breast cancer patient sample C1838, agent(s) 500 nM each): 271
